Source: patent US7297505B2, “Use of MDCK cell line to predict corneal penetration of drugs” (Alcon, Inc., priority 2004, dated 2007)

Experiments:
cornea = assay: Predicted corneal permeability from MDCK permeability by statistical model; settings: Corneal Permeability=5.41(MDCK Permeability)−0.01(MDCK Permeability)^2; in nm/s
Excerpt: The method of the present invention comprises the following steps: (1) determining the MDCK permeation value for a drug molecule; and (2) entering said value in a suitable linear or quadratic statistical model to calculate a predicted corneal permeability value for said molecule. The statistical model is created by obtaining MDCK permeation values and corneal penetration values for at least two representative drug molecules, plotting those values on a graph and deriving a linear or quadratic statistical model from the graph.

[1] = Ex vivo corneal penetration (perfusion chamber); format: in vitro ADME; settings: rabbit; Table 2; read-out: Ex vivo Rabbit Corneal Permeability, Papp nm/s
Experimental: The intact eyes, along with the lids and conjunctival sacs were then enucleated and immediately stored in about 70 ml of fresh BSS PLUS® Sterile Irrigating Solution (Alcon Laboratories, Inc.) saturated with O2/CO2 (95:5). Within one hour, corneas were mounted in the modified perfusion chamber as described by Schoenwald and Huang (G1). BSS PLUS® solution was used as the receiving and rinsing solution throughout the perfusion experiments. Steady-state conditions were used in order to determine the apparent permeability coefficients. After mounting the corneas in the chamber, 7.5 mls of BSS PLUS® solution was added to the receiving chamber (endothelial side of the cornea). Then, 7 mls of 0.1 mMole solutions of each fluoroquinolone prepared in BSS PLUS® solution was added into the donor chamber (epithelial side of the cornea). Throughout the experiment, both solutions were bubbled continuously with O2/CO2 (95:5) at the rate of about one bubble per second. This provides mixing of the solution in each chamber, oxygenation of the cornea, and pH control. Samples (0.15 ml) were withdrawn from the receiving chamber at 30 min intervals over a period of five hours. BSS PLUS® solution (0.15 ml) was added back to the receiving chamber after each withdrawal to compensate for loss of volume.
At the end of each permeability experiment, The final volume of the receiving chambers was noted, and the viability of the corneas was assessed by determining their hydration level: The corneas were trimmed of excess scleral tissue and conjunctiva, blotted, weighed, dried overnight at room temperature under vacuum over phosphorus pentoxide, and then re-weighed.
C is the steady state measured concentration of […] in the donor solution in units of μg/ml or ppm; and 60 is the conversion of minutes to seconds.

P-gp (MDR1) = assay: in vitro; settings: dog, MDCK-MDR1
Excerpt: (§1) The present invention is directed to the use of a new in vitro model for evaluating the ability of a drug molecule to penetrate the cornea. The model involves the use of MDCK cell permeability values to predict the ability of drug molecules to penetrate the cornea. The MDCK permeability values of drug molecules can be determined by means of known methods, such as the methods described in the following scientific articles: • 1. Horio, M, Pastan, I, Gottesman, M M, and Handler, J S. Transepithelial transport of vinblastine by kidney-derived cell lines. Application of a new kinetic model to estimate in situ Km of the pump. […] Pan, B F, Dutt, A, and Nelson, J A. Enhanced transepithelial flux of cimetidine by Madin-Darby canine kidney cells overexpressing human P-glycoprotein. […] The entire contents of the above-cited references relating to methods for determining MDCK permeation values for drug molecules are hereby incorporated in the present specification by reference. […] Various commercial scientific laboratories may be utilized to obtain MDCK permeation values (e.g., Absorption Systems, Exton, Pa., USA).
(§2) In vitro MDCK cell permeability. Permeability and transport studies were conducted and the data were analyzed at Absorption Systems, Exton, Pa., using methods previously described.^12,13 MDCK(MDR) monolayers were grown to confluence on collagen-coated, microporous, polycarbonate membranes in 12-well Costar Transwell plates. To ensure monolayer integrity, the trans epithelial electrical resistance (TEER) was measured. […] The permeability assay buffer was Hank's Balanced Salt Solution containing 10 mM HEPES and 15 mM glucose at a pH of 7.0-7.2. Permeability through a cell-free (blank) membrane was studied to determine non-specific binding and free diffusion of the test article through the device. […] At each time point, 1 and 2 hours, a 200-μL aliquot was taken from the receiver chamber and replaced with fresh assay buffer. Cells were dosed on the apical side [apical-to-basolateral, absorptive transport, […]] or basolateral side [basolateral-to-apical, secretory transport, (B-A)] and incubated at 37° C. with 5% CO2 and 90% relative humidity. Each determination was performed in duplicate. Lucifer Yellow permeability was measured for each monolayer after the experiment, to ensure that the cell monolayer integrity and viability was not compromised by the test article.
(§3) To determine the transport of compounds in the absence of functional P-gp activity, the above experimental conditions were used but in the presence of the P-gp inhibitor cyclosporin A (CSA).^14 For the studies using CSA, cells were pre-incubated for 30 minutes with the inhibitor (10 μM) and washed; during the permeation determination period CSA (10 μM) was present on both sides of the membrane. The Papp A-B determined in the presence of CSA was taken as an estimate of the permeability attributed to passive diffusion for the compound (Papp PD).

MDCK(MDR) monolayers = assay: in vitro; settings: MDCK-MDR1
Excerpt: as §1, §2, §3

Row | Compound | Predicted Corneal Permeability (cornea) | Papp at 5 h, 0.1 mMole [1] [×10⁻⁶ cm/s] | Papp at 10 μM (P-gp (MDR1)) [×10⁻⁶ cm/s] | MDCK^2 (MDCK(MDR) monolayers) | Post experiment Lucifer Yellow permeability in monolayers (MDCK(MDR) monolayers)
1 | Nc1cc(Cl)c(N=C2NCCN2)c(Cl)c1 [Apraclonidine] | 19.58 | 3.8 | 0.38 | 14.44 | 
2 | CC(C)NCC(O)COc1ccc(CCOCC2CC2)cc1 (stereo not drawn) [Betaxolol] | 657.76 | 60 | 20.2 | 40804 | 
3 | O=C1CC2(CCCC2)CC(=O)N1CCCCN1CCN(c2ncccn2)CC1 [Buspirone] | 675.82 | 66.5 | 32.5 | 105625 | 
4 | C[C@@H]1C[C@H]2[C@@H]3CCC4=CC(=O)C=C[C@]4(C)[C@@]3(F)[C@@H](O)C[C@]2(C)[C@@]1(O)C(=O)CO [Dexamethasone] |  |  |  | 1428.84 | 
5 | O=C1OC2(c3ccc(O)cc3Oc3cc(O)ccc32)c2ccccc21 [Fluorescein] | 33.83 | 16 | 0.66 | 43.56 | 
6 | NC(=O)Cc1cccc(C(=O)c2ccccc2)c1N [Nepafenac] | 625.74 | 74 | 18.1 | 32761 | 
7 | CC[C@@H]1C(=O)OC[C@@H]1Cc1cncn1C [Pilocarpine] | 177.99 | 9.8 | 3.68 | 1354.24 | 
8 | CC(C)(C)NC[C@H](O)COc1nsnc1N1CCOCC1 [Timolol] | 164.91 | 24 | 3.39 | 1149.21 | 
9 | Lucifer Yellow |  |  |  |  | 0.24-0.75 ×10^−6 cm/s
